Data: PubChem BioAssay AID1794823

Target: Sodium- and chloride-dependent creatine transporter 1 (Homo sapiens) (UniProt P48029)
Assay: SLC6A8 creatine transport substrate activity, dose response, cell-based, membrane potential dye, HEK-293 JumpIN, SLC6A8 overexpression (AID 1794823)
Settings: HEK-293 JumpIN SLC6A8, FLIPR membrane potential fluorescence

Chain of Sodium- and chloride-dependent creatine transporter 1 (Homo sapiens) (P48029 whole entry, looked up): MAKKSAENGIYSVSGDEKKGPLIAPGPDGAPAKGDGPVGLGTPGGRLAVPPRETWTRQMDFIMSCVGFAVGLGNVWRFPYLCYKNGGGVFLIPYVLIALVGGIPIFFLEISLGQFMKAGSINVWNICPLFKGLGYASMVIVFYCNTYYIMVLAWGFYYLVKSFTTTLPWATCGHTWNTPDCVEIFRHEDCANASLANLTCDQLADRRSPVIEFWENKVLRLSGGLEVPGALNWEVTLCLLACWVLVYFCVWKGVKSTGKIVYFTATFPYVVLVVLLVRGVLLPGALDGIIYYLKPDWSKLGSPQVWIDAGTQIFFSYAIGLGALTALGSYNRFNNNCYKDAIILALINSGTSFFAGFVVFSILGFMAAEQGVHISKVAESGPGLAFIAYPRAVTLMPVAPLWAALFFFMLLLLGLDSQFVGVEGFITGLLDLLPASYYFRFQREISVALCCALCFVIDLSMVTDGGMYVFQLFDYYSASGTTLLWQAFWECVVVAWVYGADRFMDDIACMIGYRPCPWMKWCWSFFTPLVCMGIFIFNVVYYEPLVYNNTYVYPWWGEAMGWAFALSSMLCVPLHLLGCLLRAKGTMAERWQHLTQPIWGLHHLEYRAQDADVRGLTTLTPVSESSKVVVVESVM

Compound: CN(CC(=O)O)C(=N)N
- EC50: 5 µM
